Data as given in patent US11957728B2, “Compositions for targeting receptor for advanced glycation end-products (RAGE) in a chronic inflammatory condition” (Sami-Sabinsa Group Limited, priority 2020, dated 2024).

Columns and labels:
[1] = test system: RAGE; test: RAGE expression in pancreas of HFFD-induced diabetic rats (qRT-PCR); format: in vivo, Wistar Rats
Description: (§1) Wistar Rats (150 g) were given High fat and fructose diet (HFFD) to induced type 2 diabetes (T2D). HFFD induces the development of diabetes associated with long term metabolic disorders including Fasting hyperglycemia, pre- and post-prandial hyperinsulinemia, Insulin resistance, Glucose intolerance and Dyslipidemia. Animals in HFFD show complications associated with T2D such as hepatic steatosis complicated by fibrosis, inflammation, hyperleptinemia and endothelial dysfunction. Rats were co administered with AC3 (100 mg/kg), BAP (200 μg/kg) BAP+AC3 (200 μg+100 mg/kg) BAP+AC3 (50 μg+100 mg/kg) and Metformin as positive control at 100 mg/kg along with HFFD for 90 days (Table 4). The organs were collected at the end of the experiment to evaluate the effect of the supplements on RAGE expression, oxidative stress and inflammation. […] from pancreas sample using the trizol method. […] First-strand cDNA was prepared from RNA samples using oligo dT primers and Superscript III reverse transcriptase (cDNA synthesis kit, Invitrogen™) Quantitative real-time PCR (qRT-PCR) was performed with SYBR Green I fluorescent dye using Light cycler 96 according to the manufacturer's instructions (Light Cycler® FastStart DNA Master SYBR Green I, Roche). […] The gene expression of the target gene in each test sample was determined by relative quantification using the comparative Ct (ΔΔCt) method.

[2] = test system: inflammatory marker (TNF-α, IL6, IL-1β); test: Inflammatory cytokine expression in pancreas of HFFD diabetic rats, overall statements; format: in vivo, Wistar Rats; conditions: BAP 200 ug/kg; AC3 100 mg/kg; combinations; p<0.05
Description: as §1

[3] = test system: IL-1β; test: IL-1β expression in pancreas of HFFD diabetic rats (qRT-PCR); format: in vivo, Wistar Rats; conditions: Diabetic 1.66 ± 0.04
Description: as §1

[4] = test system: TNF-α; test: TNF-α expression in pancreas of HFFD diabetic rats (qRT-PCR); format: in vivo, Wistar Rats; conditions: Diabetic 1.73 ± 0.34
Description: as §1

[5] = test system: IL-6; test: IL-6 expression in pancreas of HFFD diabetic rats (qRT-PCR); format: in vivo, Wistar Rats; conditions: Diabetic 1.60 ± 0.09
Description: as §1

[6] = test system: formation of AGE (bovine serum albumin + D-Ribose); test: In vitro anti-glycation assay (BSA + D-Ribose, fluorescence Ex/Em 390/460 nm, 24 h); format: biochemical
Description: Glycation is the non-enzymatic glycosylation reaction involving amino groups of proteins, lipids, or nucleic acids with sugar aldehyde or keto groups resulting in the formation of advanced glycosylation end-products (AGE) (Yamagishi et al. Pathologic role of dietary advanced glycation end products in cardiometabolic disorders, and therapeutic intervention, Nutrition, 32(2), 157-65 (2016)). The reactive carbonyls of sugars combine with amino groups of a protein, lipid or nucleic acid generating Schiff bases, which rearrange to Amadori products. In a series of slow reactions, the Amadori reactions, Schiff base and Maillard reactions, ultimately form AGE. Although glycation is slow in vivo, the glycation products have long-lasting effects. The effect of test substances on preventing the formation of AGE was evaluated in vitro
Anti-glycation activity was evaluated as described earlier (Sero et al. Tuning a 96-Well Microtiter Plate Fluorescence-Based Assay to Identify AGE Inhibitors in Crude Plant Extracts) Briefly, 10 μl of various sample concentrations were added to 40 μl of 25 mg/ml bovine serum albumin and 50 μl of 150 mg/ml D-Ribose in a 96 well black microplate. D-Ribose with buffer served as control. The plate containing the mixture was incubated for 24 h at 37° C. The advanced glycation product was detected by measuring the fluorescence intensity at Ex/Em of 390/460 nm by using BMG FLUOstar Optima Microplate reader.

[7] = test system: reactive oxygen species (ROS); test: Oxidative stress in tissue homogenates (DCFDA fluorescence) of HFFD diabetic rats; format: in vivo, Wistar Rats; conditions: for Relative Fluorescence Intensity, Average: Normal 6.5, Diabetic 23.8
Description: Wistar Rats (150 g) were given High fat and fructose diet (HFFD) to induced type 2 diabetes (T2D). HFFD induces the development of diabetes associated with long term metabolic disorders including Fasting hyperglycemia, pre- and post-prandial hyperinsulinemia, Insulin resistance, Glucose intolerance and Dyslipidemia. Animals in HFFD show complications associated with T2D such as hepatic steatosis complicated by fibrosis, inflammation, hyperleptinemia and endothelial dysfunction.
Rats were co administered with AC3 (100 mg/kg), BAP (200 μg/kg) BAP+AC3 (200 μg+100 mg/kg) BAP+AC3 (50 μg+100 mg/kg) and Metformin as positive control at 100 mg/kg along with HFFD for 90 days (Table 4). The organs were collected at the end of the experiment to evaluate the effect of the supplements on RAGE expression, oxidative stress and inflammation.
The level of oxidative stress in tissue was estimated by using 20,70-dichlorofluorescin diacetate (DCFDA), a fluorogenic dye that measures hydroxyl, peroxyl, and other reactive oxygen species (ROS) activity. Briefly, an aliquot of the tissue homogenates (10 μL) were mixed with 150 μL ethanol solution of DCFDA to the final concentration of 10 mM. After incubation for 30 min at room temperature in dark, the fluorescence was measured with the excitation and emission wavelengths of 488 and 520 nm. Higher the fluorescence, higher is the oxidative stress. oxidative stress is decreased in the subject, and brought about by curcuminoids. BAP, or their combination.

[8] = biological target: DPP4 (Dipeptidyl-peptidase 4) (Homo sapiens, UniProt P27487); test: Inhibition of DPP4 enzyme; format: biochemical; set-up: Anti-DPP4 activity: unit of the concentration uncertain
Chain of DPP4 (Dipeptidyl-peptidase 4) (P27487 whole entry, species assumed): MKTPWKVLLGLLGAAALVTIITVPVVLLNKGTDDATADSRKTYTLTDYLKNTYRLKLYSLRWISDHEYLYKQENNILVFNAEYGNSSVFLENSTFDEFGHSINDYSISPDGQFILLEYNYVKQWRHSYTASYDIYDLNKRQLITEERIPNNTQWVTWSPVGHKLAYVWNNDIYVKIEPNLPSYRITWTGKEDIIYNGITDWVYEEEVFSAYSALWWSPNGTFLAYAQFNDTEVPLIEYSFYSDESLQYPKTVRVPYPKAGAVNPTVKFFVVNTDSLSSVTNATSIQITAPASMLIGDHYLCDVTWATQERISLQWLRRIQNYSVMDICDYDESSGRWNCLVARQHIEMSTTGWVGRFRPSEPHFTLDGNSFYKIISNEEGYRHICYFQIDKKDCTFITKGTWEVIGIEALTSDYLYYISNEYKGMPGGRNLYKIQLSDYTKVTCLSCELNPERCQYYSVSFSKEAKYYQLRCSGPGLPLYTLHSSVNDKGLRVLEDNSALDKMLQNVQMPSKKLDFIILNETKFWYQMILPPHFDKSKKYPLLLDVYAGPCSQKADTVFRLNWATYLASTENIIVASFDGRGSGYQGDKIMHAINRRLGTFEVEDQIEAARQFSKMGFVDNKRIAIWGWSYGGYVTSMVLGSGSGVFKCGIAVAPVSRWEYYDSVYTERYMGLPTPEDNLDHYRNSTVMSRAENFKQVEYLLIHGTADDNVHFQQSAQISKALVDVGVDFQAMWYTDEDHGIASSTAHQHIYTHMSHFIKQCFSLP

[9] = test system: glycation; test: Anti-glycation activity of curcuminoids at 24 and 72 hrs (320/405); format: biochemical

CCCCCCCCCCCCCCCC(=O)O[C@H]1CC[C@]2(C)[C@H]3CC=C4[C@@H]5CC(C)(C)CC[C@]5(C)CC[C@@]4(C)[C@]3(C)CC[C@H]2C1(C)C [BAP, β-amyrin palmitate]
Effect on pancreatic RAGE expression ([1]; BAP 200 μg/kg, 90 days with HFFD, vs diabetic rats): no effect
Reduction of inflammatory cytokine expression in pancreas (in words) [2]: not effective
Expression level of IL-1β (Normal = 1) ([3]; BAP 200 μg/kg): 1.62 ± 0.11
Expression level of TNF-α (Normal = 1) ([4]; BAP 200 μg/kg): 2.01 ± 0.31
Expression level of IL-6 (Normal = 1) ([5]; BAP 200 μg/kg): 2.09 ± 0.08
Percentage Inhibition ([6]; BAP 1 μg/mL): 0%
Percentage Inhibition ([6]; BAP 2 μg/mL): 11.92%
Percentage Inhibition ([6]; BAP 4 μg/mL): 9.67%
Inhibition of AGE formation (in words) ([6]; in vitro, BSA + ribose): poor inhibitor of AGE formation
Relative Fluorescence Intensity, Average ([7]; BAP 200 μg/kg): 11.5
Decrease of oxidative stress from the diabetic control ([7]; HFFD rats, 90 days): 2 fold

O=C(/C=C/c1ccc(O)cc1)CC(=O)/C=C/c1ccc(O)cc1 [BDMC, Bisdemethoxycurcumin]
Anti-DPP4 activity ([8]; Conc 12.5 (unit uncertain)): 43.58
Anti-DPP4 activity ([8]; Conc 25 (unit uncertain)): 56.07
Anti-DPP4 activity ([8]; Conc 50 (unit uncertain)): 58.55

COc1cc(/C=C/C(=O)CC(=O)/C=C/c2ccc(O)c(OC)c2)ccc1O [Curcumin, curcumin]
Anti-Glycation activity ([9]; 24 hrs (320/405), Conc 0.3125 mg/mL): 29.67
Anti-Glycation activity ([9]; 24 hrs (320/405), Conc 0.625 mg/mL): 35.90
Anti-Glycation activity ([9]; 72 hrs (320/405), Conc 0.625 mg/mL): 44.42
Anti-DPP4 activity ([8]; Conc 12.5 (unit uncertain)): 14.11
Anti-DPP4 activity ([8]; Conc 25 (unit uncertain)): 48.88
Anti-DPP4 activity ([8]; Conc 50 (unit uncertain)): 70.29
Effectiveness against DPP4 (comparison in words) ([8]; Table 11): as effective as AC3

COc1cc(/C=C/C(O)=C/C(=O)/C=C/c2ccc(O)cc2)ccc1O [DMC, demethoxycurcumin]
Anti-DPP4 activity ([8]; Conc 12.5 (unit uncertain)): 23.56
Anti-DPP4 activity ([8]; Conc 25 (unit uncertain)): 39.86
Anti-DPP4 activity ([8]; Conc 50 (unit uncertain)): 62.60

CN(C)C(=N)N=C(N)N [Metformin]
Reduction of RAGE expression ([1]; metformin 100 mg/kg, pancreas): 6.9%
Expression level of IL-1β (Normal = 1) ([3]; Metformin 100 mg/kg): 0.89 ± 0.05
Expression level of TNF-α (Normal = 1) ([4]; Metformin 100 mg/kg): 0.91 ± 0.22
Expression level of IL-6 (Normal = 1) ([5]; Metformin 100 mg/kg): 1.04 ± 0.12
Relative Fluorescence Intensity, Average ([7]; Metformin 100 mg/kg): 28.94
